Test results reported in paper PMC7531004, “Discovery of gramicidin A analogues with altered activities by multidimensional screening of a one-bead-one-compound library” (Nature Communications, 2020).
Where a SMILES comes first, the peptide text is derived from it. [ ]: non-standard residue; d: D form. The star is where a group is joined. NHCH2CH2OH = OCCN*; For = O=C*

How the values were obtained:
[1] = H+/Na+ transport assay of bead-derived peptides (one-point); format: biochemical; design: key: relative activity; mean of two control wells = 1.00; conditions: bead-derived peptide solution, EYPC/EYPG LUVs;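 note: relative to parent gramicidin A activity set to 1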
Summary of the method: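 Values are normalized fluorescence, with Triton X-100 defining 100% and untreated LUVs 0%, and the two control wells averaging 1.00. Vesicles carried 1.0 mM pyranine and included egg yolk phosphatidylglycerol. Peptides were incubated with them 30 min at room temperature.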

[2] = test system: P388 mouse leukemia cells; conditions: 92 h
Summary of the method: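 First, library peptide stocks are diluted 250-fold in RPMI1640 with 10% heat-inactivated FBS. Next, they are mixed with P388 cells to give 1 × 10^4 cells/mL and incubated 92 h at 37 °C, 5% CO2. Finally, viability (%) is scored by WST-1 absorbance at 415 nm.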

[3] = test system: Streptococcus pyogenes SSI-9; assay: Antibacterial activity assay of bead-derived peptides (three concentrations); format: cell-based; design: key: +++: inhibition by the 640-fold diluted peptide solution; ++: inhibition by the 160-fold diluted solution; +: inhibition by the 40-fold diluted solution; -: no inhibition; conditions: S. pyogenes, bead-derived peptide solution, three concentrations
Summary of the method: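 Bead-derived library peptide stocks in DMSO were tested undiluted and after 4- and 16-fold DMSO dilution against S. pyogenes SSI-9 (2 × 10^5 CFU/well) in cation-adjusted Mueller Hinton Broth with 5% laked horse blood. After 18 h at 37 °C, wells were scored for precipitation of grown cells.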

SMILES	H+/Na+ transport activity normalized against the value of 1 (1.00) [1]	cell viability/% [2] [%]	antibacterial activity [3]
CC(C)C[C@@H](NC(=O)[C@H](Cc1c[nH]c2ccccc12)NC(=O)[C@@H](CC(C)C)NC(=O)[C@H](Cc1c[nH]c2ccccc12)NC(=O)[C@@H](CC(C)C)NC(=O)[C@H](Cc1c[nH]c2ccccc12)NC(=O)[C@H](NC(=O)[C@@H](NC(=O)[C@H](NC(=O)[C@H](C)NC(=O)[C@H](NC(=O)[C@H](C)NC(=O)CNC(=O)[C@@H](NC=O)C(C)C)C(C)C)C(C)C)C(C)C)C(C)C)C(=O)N[C@@H](Cc1c[nH]c2ccccc12)C(=O)NCCO [compound 3311] (For-VGA[dV]A[dV]V[dV]W[dL]W[dL]W[dL]W-NHCH2CH2OH)	1.14	3.3	++
CC(C)C[C@@H](NC(=O)[C@H](C)NC(=O)CNC(=O)[C@@H](NC=O)C(C)C)C(=O)N[C@@H](C)C(=O)N[C@@H](C(=O)N[C@H](C(=O)N[C@@H](C(=O)N[C@@H](Cc1c[nH]c2ccccc12)C(=O)N[C@@H](C(=O)N[C@@H](Cc1c[nH]c2ccccc12)C(=O)N[C@H](CC(C)C)C(=O)N[C@@H](Cc1c[nH]c2ccccc12)C(=O)N[C@@H](C(=O)N[C@@H](Cc1c[nH]c2ccccc12)C(=O)NCCO)C(C)C)C(C)C)C(C)C)C(C)C)[C@H](C)O [compound 3364] (For-VGA[dL]A[dT]V[dV]W[dV]W[dL]W[dV]W-NHCH2CH2OH)	1.09	100.0	-
CC(C)C[C@@H](NC(=O)[C@H](C)NC(=O)[C@H](NC(=O)[C@H](C)NC(=O)CNC(=O)[C@@H](NC=O)C(C)C)C(C)C)C(=O)N[C@H](C(=O)N[C@H](CC(C)C)C(=O)N[C@@H](Cc1c[nH]c2ccccc12)C(=O)N[C@H](CC(C)C)C(=O)N[C@@H](Cc1c[nH]c2ccccc12)C(=O)N[C@H](CC(C)C)C(=O)N[C@@H](Cc1c[nH]c2ccccc12)C(=O)N[C@@H](C(=O)N[C@@H](Cc1c[nH]c2ccccc12)C(=O)NCCO)[C@H](C)O)C(C)C [compound 3365] (For-VGA[dV]A[dL]V[dL]W[dL]W[dL]W[dT]W-NHCH2CH2OH)	1.03	100.0	+
CC(C)C[C@@H](NC(=O)[C@H](C)NC(=O)[C@H](NC(=O)[C@H](C)NC(=O)CNC(=O)[C@@H](NC=O)C(C)C)C(C)C)C(=O)N[C@H](C(=O)N[C@@H](C(=O)N[C@@H](Cc1c[nH]c2ccccc12)C(=O)N[C@H](CC(C)C)C(=O)N[C@@H](Cc1c[nH]c2ccccc12)C(=O)N[C@@H](C(=O)N[C@@H](Cc1c[nH]c2ccccc12)C(=O)N[C@@H](C(=O)N[C@@H](Cc1c[nH]c2ccccc12)C(=O)NCCO)C(C)C)C(C)C)[C@H](C)O)C(C)C [compound 3375] (For-VGA[dV]A[dL]V[dT]W[dL]W[dV]W[dV]W-NHCH2CH2OH)	1.29	100.0	-
CC(C)C[C@@H](NC(=O)[C@H](C)NC(=O)[C@H](NC(=O)[C@H](C)NC(=O)CNC(=O)[C@@H](NC=O)C(C)C)[C@H](C)O)C(=O)N[C@H](C(=O)N[C@H](CC(C)C)C(=O)N[C@@H](Cc1c[nH]c2ccccc12)C(=O)N[C@@H](C(=O)N[C@@H](Cc1c[nH]c2ccccc12)C(=O)N[C@H](CC(C)C)C(=O)N[C@@H](Cc1c[nH]c2ccccc12)C(=O)N[C@@H](C(=O)N[C@@H](Cc1c[nH]c2ccccc12)C(=O)NCCO)C(C)C)[C@H](C)O)C(C)C [compound 3437] (For-VGA[dT]A[dL]V[dL]W[dT]W[dL]W[dV]W-NHCH2CH2OH)	1.01	100.0	-
CC(C)C[C@@H](NC(=O)[C@H](Cc1c[nH]c2ccccc12)NC(=O)[C@H](NC(=O)[C@H](Cc1c[nH]c2ccccc12)NC(=O)[C@@H](CC(C)C)NC(=O)[C@H](Cc1c[nH]c2ccccc12)NC(=O)[C@H](NC(=O)[C@@H](NC(=O)[C@H](NC(=O)[C@H](C)NC(=O)[C@H](NC(=O)[C@H](C)NC(=O)CNC(=O)[C@@H](NC=O)C(C)C)[C@H](C)O)C(C)C)C(C)C)C(C)C)C(C)C)C(=O)N[C@@H](Cc1c[nH]c2ccccc12)C(=O)NCCO [compound 3548] (For-VGA[dT]A[dV]V[dV]W[dL]W[dV]W[dL]W-NHCH2CH2OH)	1.16	100.0	-
CNC(=O)C[C@@H](NC(=O)[C@@H](NC(=O)[C@H](NC(=O)[C@H](C)NC(=O)[C@@H](CC(C)C)NC(=O)[C@H](C)NC(=O)CNC(=O)[C@@H](NC=O)C(C)C)C(C)C)C(C)C)C(=O)N[C@@H](Cc1c[nH]c2ccccc12)C(=O)N[C@@H](C(=O)N[C@@H](Cc1c[nH]c2ccccc12)C(=O)N[C@H](CC(C)C)C(=O)N[C@@H](Cc1c[nH]c2ccccc12)C(=O)N[C@H](CC(C)C)C(=O)N[C@@H](Cc1c[nH]c2ccccc12)C(=O)NCCO)C(C)C [compound 3584] (For-VGA[dL]A[dV]V[dD](NHMe)W[dV]W[dL]W[dL]W-NHCH2CH2OH)	1.22	100.0	-
CC(C)C[C@@H](NC(=O)[C@@H](NC(=O)[C@H](NC(=O)[C@H](C)NC(=O)[C@H](NC(=O)[C@H](C)NC(=O)CNC(=O)[C@@H](NC=O)C(C)C)[C@H](C)O)C(C)C)C(C)C)C(=O)N[C@@H](Cc1c[nH]c2ccccc12)C(=O)N[C@@H](C(=O)N[C@@H](Cc1c[nH]c2ccccc12)C(=O)N[C@@H](C(=O)N[C@@H](Cc1c[nH]c2ccccc12)C(=O)N[C@@H](C(=O)N[C@@H](Cc1c[nH]c2ccccc12)C(=O)NCCO)C(C)C)C(C)C)C(C)C [compound 3631] (For-VGA[dT]A[dV]V[dL]W[dV]W[dV]W[dV]W-NHCH2CH2OH)	1.02	100.0	-
CC(C)C[C@@H](NC(=O)[C@H](C)NC(=O)CNC(=O)[C@@H](NC=O)C(C)C)C(=O)N[C@@H](C)C(=O)N[C@@H](C(=O)N[C@H](C(=O)N[C@H](CC(C)C)C(=O)N[C@@H](Cc1c[nH]c2ccccc12)C(=O)N[C@@H](C(=O)N[C@@H](Cc1c[nH]c2ccccc12)C(=O)N[C@H](CC(C)C)C(=O)N[C@@H](Cc1c[nH]c2ccccc12)C(=O)N[C@@H](C(=O)N[C@@H](Cc1c[nH]c2ccccc12)C(=O)NCCO)C(C)C)C(C)C)C(C)C)C(C)C [compound 3633] (For-VGA[dL]A[dV]V[dL]W[dV]W[dL]W[dV]W-NHCH2CH2OH)	1.04	1.7	-
CC(C)C[C@@H](NC(=O)[C@H](C)NC(=O)CNC(=O)[C@@H](NC=O)C(C)C)C(=O)N[C@@H](C)C(=O)N[C@H](CC(C)C)C(=O)N[C@H](C(=O)N[C@@H](C(=O)N[C@@H](Cc1c[nH]c2ccccc12)C(=O)N[C@H](CC(C)C)C(=O)N[C@@H](Cc1c[nH]c2ccccc12)C(=O)N[C@@H](C(=O)N[C@@H](Cc1c[nH]c2ccccc12)C(=O)N[C@H](CC(C)C)C(=O)N[C@@H](Cc1c[nH]c2ccccc12)C(=O)NCCO)[C@H](C)O)[C@H](C)O)C(C)C [compound 3780] (For-VGA[dL]A[dL]V[dT]W[dL]W[dT]W[dL]W-NHCH2CH2OH)	1.16	100.0	-
CNC(=O)C[C@@H](NC(=O)[C@@H](NC(=O)[C@@H](CC(C)C)NC(=O)[C@H](C)NC(=O)[C@H](NC(=O)[C@H](C)NC(=O)CNC(=O)[C@@H](NC=O)C(C)C)C(C)C)C(C)C)C(=O)N[C@@H](Cc1c[nH]c2ccccc12)C(=O)N[C@H](CC(C)C)C(=O)N[C@@H](Cc1c[nH]c2ccccc12)C(=O)N[C@H](CC(C)C)C(=O)N[C@@H](Cc1c[nH]c2ccccc12)C(=O)N[C@@H](C(=O)N[C@@H](Cc1c[nH]c2ccccc12)C(=O)NCCO)C(C)C [compound 3800] (For-VGA[dV]A[dL]V[dD](NHMe)W[dL]W[dL]W[dV]W-NHCH2CH2OH)	1.23	100.0	-
CC(C)C[C@@H](NC(=O)[C@H](C)NC(=O)CNC(=O)[C@@H](NC=O)C(C)C)C(=O)N[C@@H](C)C(=O)N[C@@H](C(=O)N[C@H](C(=O)N[C@H](CC(C)C)C(=O)N[C@@H](Cc1c[nH]c2ccccc12)C(=O)N[C@H](CC(C)C)C(=O)N[C@@H](Cc1c[nH]c2ccccc12)C(=O)N[C@@H](C(=O)N[C@@H](Cc1c[nH]c2ccccc12)C(=O)N[C@H](CC(C)C)C(=O)N[C@@H](Cc1c[nH]c2ccccc12)C(=O)NCCO)C(C)C)C(C)C)C(C)C [compound 3847] (For-VGA[dL]A[dV]V[dL]W[dL]W[dV]W[dL]W-NHCH2CH2OH)	1.22	0.0	+
CNC(=O)C[C@@H](NC(=O)[C@H](Cc1c[nH]c2ccccc12)NC(=O)[C@H](NC(=O)[C@H](Cc1c[nH]c2ccccc12)NC(=O)[C@@H](CC(C)C)NC(=O)[C@H](Cc1c[nH]c2ccccc12)NC(=O)[C@@H](CC(C)C)NC(=O)[C@@H](NC(=O)[C@@H](CC(C)C)NC(=O)[C@H](C)NC(=O)[C@@H](CC(C)C)NC(=O)[C@H](C)NC(=O)CNC(=O)[C@@H](NC=O)C(C)C)C(C)C)C(C)C)C(=O)N[C@@H](Cc1c[nH]c2ccccc12)C(=O)NCCO [compound 3911] (For-VGA[dL]A[dL]V[dL]W[dL]W[dV]W[dD](NHMe)W-NHCH2CH2OH)	1.00	100.0	-
